Assay results reported in US20210346329A1, “TCA CYCLE INTERMEDIATES AND METHODS OF USE THEREOF” (IMBRIA PHARMACEUTICALS, INC., priority 2018, published 2021).
“And” between values parts separate entries of the source, which are not always exact repeats. Equal values may be shown once. Read-outs that look alike come from different tables or passages of the source.

Key:
[1] = for Bioavailability: Oral 50 mg/kg vs IV 10 mg/kg
Description: Blood samples were collected up to 8 hours post-dose, and plasma concentrations of the test articles were determined by LC-MS/MS. Pharmacokinetic parameters were determined using Phoenix WinNonlin (v8.0) software.
Plasma samples were extracted and analyzed using the methods described in the section on Sample Extraction. All data are expressed as ng/mL of the free base. Samples that were below the limit of quantification were not used in the calculation of averages.
Pharmacokinetic parameters were determined with Phoenix WinNonlin (v8.0) software using a non-compartmental model. The maximum plasma concentrations (C0) after IV dosing were estimated by extrapolation of the first two time points back to t=0. The maximum plasma concentration (Cmax) and the time to reach maximum plasma concentration (Tmax) after PO dosing were observed from the data. The area under the time concentration curve (AUC) was calculated using the linear trapezoidal rule with calculation to the last quantifiable data point, and with extrapolation to infinity if applicable. […] Mean residence time, MRT, was calculated by dividing the area under the moment curve (AUMC) by the AUC. Clearance (CL) was calculated from dose/AUC. Steady-state volume of distribution (Vss) was calculated from CL*MRT (mean residence time). Bioavailability was determined by dividing the individual dose-normalized PO AUClast values by the average dose-normalized IV AUClast value. Any samples below the limit of quantitation (1 ng/mL) were treated as zero for pharmacokinetic data analysis.
Standards were prepared in Sprague-Dawley rat plasma containing sodium heparin as the anticoagulant. Working solutions were prepared in 50:50 acetonitrile:water and then added to the rat plasma to make calibration standards to final concentrations of 2000, 1000, 500, 100, 50.0, 10.0, 5.00, 2.50, and 1.00 ng/mL. Standards were treated identically to the study samples.
Plasma samples were manually extracted using acetonitrile in a 96-well plate as outlined in Table 15.

[2] = SC 10 mg/kg
From the text: Concentrations versus time data are plotted in FIG. 1 through FIG. 6.

[3] = IV 10 mg/kg, extrapolated to t = 0, mean
[4] = IV 10 mg/kg, individual Rat 598, 599, 600, 10 mg/kg
[5] = Oral 50 mg/kg, individual Rat 601, 602, 603, 50 mg/kg

Plasma concentration ([1]; IV 10 mg/kg, 0.083 hr, individual Rat 598, 599, 600, 10 mg/kg): 8050 ng/mL and 6880 ng/mL and 8410 ng/mL
Plasma concentration ([1]; IV 10 mg/kg, 0.083 hr, mean): 7780 ng/mL
Plasma concentration ([1]; IV 10 mg/kg, 0.50 hr, individual Rat 598, 599, 600, 10 mg/kg): 91.0 ng/mL and 99.8 ng/mL and 144 ng/mL
Plasma concentration ([1]; IV 10 mg/kg, 0.50 hr, mean): 112 ng/mL
Plasma concentration ([1]; IV 10 mg/kg, 1.0 hr, individual Rat 598, 599, 600, 10 mg/kg): 27.0 ng/mL and 9.43 ng/mL and 29.5 ng/mL
Plasma concentration ([1]; IV 10 mg/kg, 1.0 hr, mean): 22.0 ng/mL
Plasma concentration ([1]; IV 10 mg/kg, 2.0 hr, individual Rat 598, 599, 600, 10 mg/kg): 10.3 ng/mL and 9.06 ng/mL and 19.9 ng/mL
Plasma concentration ([1]; IV 10 mg/kg, 2.0 hr, mean): 13.1 ng/mL
Plasma concentration ([1]; IV 10 mg/kg, 4.0 hr, individual Rat 598, 599, 600, 10 mg/kg): 4.79 ng/mL and 6.25 ng/mL and 6.15 ng/mL
Plasma concentration ([1]; IV 10 mg/kg, 4.0 hr, mean): 5.73 ng/mL
tmax ([1]; IV 10 mg/kg, extrapolated to t = 0, individual Rat 598, 599, 600): 0 min
C0 [1, 3]: 20257 ng/mL
tmax [1, 3]: 0 min
MRTlast [1, 4]: 6.12 min and 5.69 min and 8.4 min
Vss [1, 4]: 0.561 L/kg and 1.65 L/kg and 0.735 L/kg
t1/2 [1, 4]: 1.26 h and 4.81 h and 1.30 h
AUClast ([1]; IV 10 mg/kg, mean): 2155 ng·h/mL
AUC∞ ([1]; IV 10 mg/kg, mean): 2176 ng·h/mL
CL ([1]; IV 10 mg/kg, mean): 4.61 ± 0.341 L/h/kg
Dose-normalized AUC∞ ([1]; IV 10 mg/kg, mean): 218 kg·ng·h/mL/mg
MRTlast ([1]; IV 10 mg/kg, mean): 6.78 min
Vss ([1]; IV 10 mg/kg, mean): 0.982 ± 0.584 L/kg
t1/2 ([1]; IV 10 mg/kg, mean): 2.46 ± 2.04 h
Dose-normalized AUClast ([1]; IV 10 mg/kg, mean, 10 mg/kg): 215 kg·ng·h/mL/mg
Bioavailability ([1]; individual Rat 601, 602, 603): 0.726% and 0.191% and 1.64%
Bioavailability ([1]; mean): 0.854±0.735%
Plasma concentration ([1]; Oral 50 mg/kg, 0.50 hr, individual Rat 601, 602, 603, 50 mg/kg): 75.4 ng/mL and 27.8 ng/mL and 186 ng/mL
Plasma concentration ([1]; Oral 50 mg/kg, 0.50 hr, mean): 96.4 ng/mL
Plasma concentration ([1]; Oral 50 mg/kg, 1.0 hr, individual Rat 601, 602, 603, 50 mg/kg): 3.78 ng/mL and 3.00 ng/mL and 5.66 ng/mL
Plasma concentration ([1]; Oral 50 mg/kg, 1.0 hr, mean): 4.15 ng/mL
Plasma concentration ([1]; Oral 50 mg/kg, 2.0 hr, mean): 1.77 ng/mL
tmax ([1]; Oral 50 mg/kg, individual Rat 601, 602, 603): 15 min
Cmax [1, 5]: 186 ng/mL and 37.5 ng/mL and 408 ng/mL
MRTlast [1, 5]: 22.9 min and 24.2 min and 22.7 min
AUClast ([1]; Oral 50 mg/kg, mean): 92.0 ng·h/mL
Cmax ([1]; Oral 50 mg/kg, mean): 211 ± 186 ng/mL
MRTlast ([1]; Oral 50 mg/kg, mean): 23.3 min
tmax ([1]; Oral 50 mg/kg, mean): 15 min
Time post dosing at which maximum plasma concentrations were observed ([1]; PO 50 mg/kg): 15 min
Time post dosing at which maximum plasma concentrations were observed [2]: 15 min
Plasma concentration ([2]; 0.50 hr, individual rats 776, 777, 778, 10 mg/kg): 1280 ng/mL (2×) and 854 ng/mL
Plasma concentration ([2]; 0.50 hr, mean): 1138 ng/mL
Plasma concentration ([2]; 1.0 hr, individual rats 776, 777, 778, 10 mg/kg): 430 ng/mL and 220 ng/mL and 415 ng/mL
Plasma concentration ([2]; 1.0 hr, mean): 355 ng/mL
Plasma concentration ([2]; 2.0 hr, individual rats 776, 777, 778, 10 mg/kg): 28.5 ng/mL and 10.6 ng/mL and 23.2 ng/mL
Plasma concentration ([2]; 2.0 hr, mean): 20.8 ng/mL
Plasma concentration ([2]; 4.0 hr, mean): 7.59 ng/mL
AUC∞ ([2]; individual rat (777)): 1030 ng·h/mL
Dose-normalized AUC∞ ([2]; individual rat (777)): 103 kg·ng·h/mL/mg
t1/2 ([2]; individual rat (777)): 27.2 min
Compound: O=[13C](O)[13CH2][13CH2][13C](=O)O [^13C4-succinate]
Plasma concentration ([1]; IV 10 mg/kg, 8.0 hr, individual Rat 598, 599, 600): BLOQ (BLOQ: below the limit of quantitation (1 ng/mL))
C0 ([1]; IV 10 mg/kg, extrapolated to t = 0, individual Rat 598, 599, 600, 10 mg/kg): 21947 ng/mL and 21392 ng/mL and 17434 ng/mL
AUClast [1, 4]: 2215 ng·h/mL and 1958 ng·h/mL and 2291 ng·h/mL
AUC∞ [1, 4]: 2223 ng·h/mL and 2902 ng·h/mL and 2303 ng·h/mL
CL [1, 4]: 4.50 L/h/kg and 5.00 L/h/kg and 4.34 L/h/kg
Dose-normalized AUClast [1, 4]: 221 kg·ng·h/mL/mg and 196 kg·ng·h/mL/mg and 229 kg·ng·h/mL/mg
Dose-normalized AUC∞ [1, 4]: 222 kg·ng·h/mL/mg and 290 kg·ng·h/mL/mg and 230 kg·ng·h/mL/mg
Dose-normalized AUClast ([1]; IV 10 mg/kg, mean, listed as 13C4-Succinate, 10 mg/kg): ^2Bioavailability determined by dividing the individual oral dose-normalized AUClast values by the average IV dose normalized AUClast value 215 hr*kg*ng/mL/mg from previous study. hr · kg · ng/mL/mg
Plasma concentration ([1]; Oral 50 mg/kg, 2.0 hr, individual Rat 601, 602, 603, 50 mg/kg): 1.29 ng/mL and BLOQ (BLOQ: below the limit of quantitation (1 ng/mL)) and 2.25 ng/mL
Plasma concentration ([1]; Oral 50 mg/kg, 4.0 hr, individual Rat 601, 602, 603): BLOQ (BLOQ: below the limit of quantitation (1 ng/mL))
Plasma concentration ([1]; Oral 50 mg/kg, 8.0 hr, individual Rat 601, 602, 603): BLOQ (BLOQ: below the limit of quantitation (1 ng/mL))
AUClast [1, 5]: 78.3 ng·h/mL and 20.6 ng·h/mL and 177 ng·h/mL
Dose-normalized AUClast [1, 5]: 1.57 kg·ng·h/mL/mg and 0.411 kg·ng·h/mL/mg and 3.54 kg·ng·h/mL/mg
Dose-normalized AUClast ([1]; Oral 50 mg/kg, mean, 50 mg/kg): 1.84 ± 1.58 kg·ng·h/mL/mg and 1.84 kg·ng·h/mL/mg
Adverse reactions ([1]; intravenous (10 mg/kg) and oral (50 mg/kg) dosing): No adverse reactions were observed
